Like-named read-outs stand apart in the source and are kept apart here.
Key:
F508del-CFTR = biological target: T1, F508del-CFTR (Homo sapiens, UniProt P13569, DEL508-508); assay: Ussing chamber electrophysiology, acute potentiation of F508del-CFTR current in corrected CF-hBE cells; format: cell-based; conditions: for Maximum efficacy (Emax), relative efficacy: normalized to response of 1 μM ivacaftor (=1.0), cells treated with the three correctors
T1 construct: endogenous in cells; host or cells: CF-hBE (primary human bronchial epithelial cells from CF donors)
T1 sequence (P13569 with tags, fused parts or gaps DEL508-508): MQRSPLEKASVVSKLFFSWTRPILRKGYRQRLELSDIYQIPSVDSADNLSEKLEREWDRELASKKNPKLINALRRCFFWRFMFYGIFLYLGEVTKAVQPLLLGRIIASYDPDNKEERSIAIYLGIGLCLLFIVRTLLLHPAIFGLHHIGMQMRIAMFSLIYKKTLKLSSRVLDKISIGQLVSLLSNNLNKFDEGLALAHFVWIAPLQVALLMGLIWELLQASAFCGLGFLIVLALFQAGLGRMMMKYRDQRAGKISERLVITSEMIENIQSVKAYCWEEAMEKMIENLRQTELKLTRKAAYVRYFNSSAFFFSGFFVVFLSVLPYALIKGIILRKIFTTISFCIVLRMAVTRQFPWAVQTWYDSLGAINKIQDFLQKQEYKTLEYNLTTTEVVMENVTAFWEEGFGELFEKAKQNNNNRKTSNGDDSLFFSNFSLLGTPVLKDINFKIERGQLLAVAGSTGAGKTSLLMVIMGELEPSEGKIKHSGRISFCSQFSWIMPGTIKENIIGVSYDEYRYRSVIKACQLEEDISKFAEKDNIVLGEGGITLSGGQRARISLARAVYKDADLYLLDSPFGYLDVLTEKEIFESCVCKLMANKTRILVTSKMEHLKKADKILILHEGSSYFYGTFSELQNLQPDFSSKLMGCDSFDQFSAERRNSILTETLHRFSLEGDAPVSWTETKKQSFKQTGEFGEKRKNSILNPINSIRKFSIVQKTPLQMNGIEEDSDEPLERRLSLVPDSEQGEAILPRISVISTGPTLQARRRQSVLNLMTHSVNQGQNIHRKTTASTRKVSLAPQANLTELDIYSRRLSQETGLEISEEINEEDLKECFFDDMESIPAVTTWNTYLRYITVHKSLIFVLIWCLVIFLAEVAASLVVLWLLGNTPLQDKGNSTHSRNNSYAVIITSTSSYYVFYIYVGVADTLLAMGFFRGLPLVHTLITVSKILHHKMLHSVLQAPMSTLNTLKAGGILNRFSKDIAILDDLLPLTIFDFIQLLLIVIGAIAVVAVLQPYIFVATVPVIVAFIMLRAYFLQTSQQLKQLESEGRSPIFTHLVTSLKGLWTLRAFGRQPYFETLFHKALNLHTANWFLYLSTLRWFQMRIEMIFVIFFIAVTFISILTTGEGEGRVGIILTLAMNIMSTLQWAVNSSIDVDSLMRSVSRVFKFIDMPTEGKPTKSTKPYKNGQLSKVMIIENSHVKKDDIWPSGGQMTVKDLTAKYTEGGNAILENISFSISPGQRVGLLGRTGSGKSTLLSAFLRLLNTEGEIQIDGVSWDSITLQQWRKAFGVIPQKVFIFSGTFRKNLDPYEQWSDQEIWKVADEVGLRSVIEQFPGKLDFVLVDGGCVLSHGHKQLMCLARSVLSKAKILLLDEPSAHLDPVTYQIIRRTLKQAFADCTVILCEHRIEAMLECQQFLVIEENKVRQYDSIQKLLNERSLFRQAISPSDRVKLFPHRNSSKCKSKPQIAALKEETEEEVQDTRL
Description: Methods: […] Electrophysiology assays were conducted in an Ussing chamber in which corrected cells were treated with ascending concentrations of […] (0.001-10 μM) or ivacaftor (0.0003-1.0 μM). […] FIG. 1 legend: Ussing assay dose-response curves for potentiation of F508del-CFTR current following acute addition of ivacaftor (0.0003-1.0 μM, black circles) and […] (0.001-10 μM, blue squares labeled FDL176). Cells were corrected with lumacaftor (left), tezacaftor (middle), or FDL169 (right), each at 3 μM. For each corrector treatment group, dose response data for ivacaftor and […] were normalized to the response following activation with 1 μM ivacaftor (with matched corrector). Error bars represent SEM. CF-hBE=cystic fibrosis primary human bronchial epithelial cells; CFTR=cystic fibrosis transmembrane conductance regulator; SEM=standard error of the mean.

[1] = cystic fibrosis patients with comorbid pancreatic diseases (Carrion et al. 2018); cited from earlier work
G551D variant = G551D variant (Homo sapiens, UniProt P13569, G551D); assay: Potentiator EC50 for the G551D CFTR variant; format: cell-based
G551D variant, sequence (P13569 whole entry G551D): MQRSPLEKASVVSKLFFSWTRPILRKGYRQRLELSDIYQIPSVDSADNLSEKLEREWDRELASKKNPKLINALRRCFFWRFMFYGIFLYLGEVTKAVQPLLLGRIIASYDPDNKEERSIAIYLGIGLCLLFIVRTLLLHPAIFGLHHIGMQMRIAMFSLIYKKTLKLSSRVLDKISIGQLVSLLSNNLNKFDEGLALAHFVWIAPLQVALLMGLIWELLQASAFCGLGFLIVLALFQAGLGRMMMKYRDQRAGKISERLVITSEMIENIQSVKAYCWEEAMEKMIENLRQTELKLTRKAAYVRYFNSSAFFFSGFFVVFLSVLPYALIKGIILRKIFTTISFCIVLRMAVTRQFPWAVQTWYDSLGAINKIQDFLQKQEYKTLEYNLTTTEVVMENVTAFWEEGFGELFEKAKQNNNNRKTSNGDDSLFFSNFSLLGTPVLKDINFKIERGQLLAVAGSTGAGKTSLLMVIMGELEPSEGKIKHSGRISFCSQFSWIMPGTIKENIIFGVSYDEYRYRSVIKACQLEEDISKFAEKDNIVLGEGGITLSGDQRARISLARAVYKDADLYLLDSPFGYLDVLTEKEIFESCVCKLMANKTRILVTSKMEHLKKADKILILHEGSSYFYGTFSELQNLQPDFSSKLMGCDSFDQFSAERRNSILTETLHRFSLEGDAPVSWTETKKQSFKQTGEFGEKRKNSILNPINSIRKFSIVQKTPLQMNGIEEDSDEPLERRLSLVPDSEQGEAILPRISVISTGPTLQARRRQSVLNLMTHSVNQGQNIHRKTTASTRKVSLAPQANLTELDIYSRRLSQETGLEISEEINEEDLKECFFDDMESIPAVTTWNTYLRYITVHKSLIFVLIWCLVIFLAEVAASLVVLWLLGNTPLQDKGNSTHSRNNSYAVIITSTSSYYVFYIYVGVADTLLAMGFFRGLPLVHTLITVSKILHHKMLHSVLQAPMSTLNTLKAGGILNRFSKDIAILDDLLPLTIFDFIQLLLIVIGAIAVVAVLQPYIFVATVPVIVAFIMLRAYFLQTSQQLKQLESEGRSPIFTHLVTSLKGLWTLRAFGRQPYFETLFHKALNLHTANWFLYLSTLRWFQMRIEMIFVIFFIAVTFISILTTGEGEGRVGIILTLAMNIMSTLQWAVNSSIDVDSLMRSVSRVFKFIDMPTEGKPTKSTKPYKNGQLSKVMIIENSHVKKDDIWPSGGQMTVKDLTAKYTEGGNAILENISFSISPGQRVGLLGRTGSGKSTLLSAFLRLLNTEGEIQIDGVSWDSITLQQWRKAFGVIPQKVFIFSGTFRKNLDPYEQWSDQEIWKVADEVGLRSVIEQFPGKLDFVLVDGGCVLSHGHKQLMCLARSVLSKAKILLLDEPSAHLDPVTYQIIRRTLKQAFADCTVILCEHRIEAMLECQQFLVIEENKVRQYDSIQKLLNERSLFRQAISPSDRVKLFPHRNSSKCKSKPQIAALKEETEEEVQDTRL

[2] = Total plasma Cmin at steady state, human dose; format: in vivo
[3] = NOAEL exposure in rats vs human dose
[4] = NOAEL exposure in dogs vs human dose

SMILES | EC50 (F508del-CFTR; corrector treated CF-hBE cells (lumacaftor, tezacaftor, FDL169), acute addition, read-out: EC50 range, potentiation of F508del-CFTR current) | Maximum efficacy (Emax), relative efficacy (F508del-CFTR) | Recurrence rate of pancreatitis [1] | EC50 (F508del-CFTR; CF-hBE cells corrected with FDL169 3 μM, acute addition (<1 hour), read-out: EC50, potentiation of F508del-CFTR current) | EC50 (F508del-CFTR; CF-hBE cells corrected with lumacaftor 3 μM, acute addition (<1 hour), read-out: EC50, potentiation of F508del-CFTR current) | EC50 (F508del-CFTR; CF-hBE cells corrected with tezacaftor 3 μM, acute addition (<1 hour), read-out: EC50, potentiation of F508del-CFTR current) | EC50 (G551D variant) | Total plasma Cmin at steady state ([2]; 30 mg dose) | Total plasma Cmin at steady state ([2]; 50 mg dose) | Safety margin of NOAEL exposure over a 50 mg human dose [3] | Safety margin of NOAEL exposure over a 50 mg human dose [4]
CC(C)(C)c1cc(C(C)(C)C)c(NC(=O)c2c[nH]c3ccccc3c2=O)cc1O [ivacaftor, reference compound] | 3.6 to 9.1 nM | 1.0 | decreased recurrence rate of pancreatitis |  |  |  |  |  |  |  | 
Cl.O=S(=O)(c1ccccc1)c1ccc2nc(NCc3ccc(-c4ccccn4)cc3)nn2c1 [X0176, 6-(phenylsulfonyl)-N-(4-(pyridin-2-yl)benzyl)-[1,2,4]triazolo[1,5-a]pyridin-2-amine hydrochloride] |  | 1.0 |  | 204 ± 24.4 nM | 133 ± 18.1 nM | 202 ± 44.6 nM | 2600 nM | 2180 nM | 3170 nM | 3.4 fold | 1.1 fold

From US20230201172A1, “METHODS OF TREATING CFTR RELATED DISEASES AND DISORDERS” (ARIEL PRECISION MEDICINE, INC., priority 2020, published 2023)
